Data taken from patent US20200206291A1, “COMPOSITION FOR PREVENTING OR TREATING OBESITY, COMPRISING SUPPLEMENT FOR REDUCING BODY FAT AND B-GLUCAN AS ACTIVE INGREDIENTS” (QUEGEN BIOTECH CO., LTD., priority 2017, published 2020).

What was measured:
Assay type in all cases: in vivo, C57BL/6 mice
[1] = Body weight of mice measured every week for 28 weeks, CLA with or without SPG (Example 1, FIG. 2); conditions: oral, weekly over 28 weeks; compared to Comparative Experimental Group 1-3 (PBS)
Protocol: Six-week-old wild-type C57BL/6 mice, to be subjected to body fat monitoring, were purchased, acclimated for 3 days and then raised. Schizophyllum commune-derived β-glucan (SPG with the structure of β-(1,6)-branched (1,3)-glucan; Quegen Biotech Co., Ltd.) and a phosphate buffer solution (PBS) were orally administered as test drugs in combination or independently once every day. Specifically, 0.2 mL of CLA (concentration=10 mg/mL), and after 30 minutes, 0.2 mL of Schizophyllum commnune-derived β-glucan (SPG with the structure of β-(1,6)-branched (1,3)-glucan; concentration=0.4 mg/mL) were orally administered to Experimental Group 1-1. In addition, 0.2 mL of CLA (concentration=10 mg/mL), and after 30 minutes, 0.2 mL of Schizophyllum commune-derived β-glucan (SPG with the structure of β-(1,6)-branched (1,3)-glucan; concentration=2 mg/mL) were orally administered to Experimental Group 1-2. Meanwhile, 0.2 mL of CLA (concentration=10 mg/mL) was orally administered to Comparative Experimental Group 1-1. […]
Specifically, in Experimental Groups 1-1 and 1-2 and Comparative Experimental Groups 1-1 to 1-3, the body weights of the mice were measured every week for 28 weeks after the start of administration of the test drugs, and the result is shown in FIG. 2.

[2] = Body weights and tissue weights of mice sacrificed after 28 weeks (Example 1, FIG. 3); conditions: compared to Comparative Experimental Group 1-3 (PBS)
Protocol: (§1) Six-week-old wild-type C57BL/6 mice, to be subjected to body fat monitoring, were purchased, acclimated for 3 days and then raised. Schizophyllum commune-derived β-glucan (SPG with the structure of β-(1,6)-branched (1,3)-glucan; Quegen Biotech Co., Ltd.) and a phosphate buffer solution (PBS) were orally administered as test drugs in combination or independently once every day. Specifically, 0.2 mL of CLA (concentration=10 mg/mL), and after 30 minutes, 0.2 mL of Schizophyllum commnune-derived β-glucan (SPG with the structure of β-(1,6)-branched (1,3)-glucan; concentration=0.4 mg/mL) were orally administered to Experimental Group 1-1. In addition, 0.2 mL of CLA (concentration=10 mg/mL), and after 30 minutes, 0.2 mL of Schizophyllum commune-derived β-glucan (SPG with the structure of β-(1,6)-branched (1,3)-glucan; concentration=2 mg/mL) were orally administered to Experimental Group 1-2. Meanwhile, 0.2 mL of CLA (concentration=10 mg/mL) was orally administered to Comparative Experimental Group 1-1. In addition, 0.2 mL of Schizophyllum commune-derived β-glucan (SPG with the structure of β-(1,6)-branched (1,3)-glucan; concentration=2 mg/mL) was orally administered to Comparative Experimental Group 1-2, and 0.2 mL of PBS was orally administered to Comparative Experimental Group 1-3.
In addition, in Experimental Groups 1-1 and 1-2 and Comparative Experimental Groups 1-1 to 1-3, the mice were sacrificed after 28 weeks of administering the test drugs, and then body weights and tissue weights thereof measured, and the result is shown in FIG. 3.

[3] = Body weight of mice measured every week for 20 weeks, HCA with or without SPG (Example 2, FIG. 5); conditions: oral, weekly over 20 weeks; compared to Comparative Experimental Group 2-3 (PBS)
Protocol: Six-week-old wild-type C57BL/6 mice, to be subjected to body fat monitoring, were purchased, acclimated for 3 days and then raised. HCA (Sigma-Aldrich), Schizophyllum commune-derived β-glucan (SPG with the structure of β-(1.6)-branched (1,3)-glucan; Quegen Biotech Co., Ltd.) and a phosphate buffer solution (PBS) were orally administered as test drugs in combination or independently once every day. Specifically, 0.2 mL of HCA (concentration=10 mg/mL), and after 30 minutes, 0.2 mL of Schizophyllum commune-derived β-glucan (SPG with the structure of β-(1,6)-branched (1,3)-glucan; concentration=0.4 mg/mL) were orally administered to Experimental Group 2-1. In addition, 0.2 mL of HCA (concentration=10 mg/mL), and after 30 minutes, 0.2 mL of Schizophyllum commune-derived β-glucan (SPG with the structure of β-(1,6)-branched (1,3)-glucan; concentration=2 mg/mL) were orally administered to Experimental Group 2-2. Meanwhile, 0.2 mL of HCA (concentration=10 mg/mL) was orally administered to Comparative Experimental Group 2-1. […]
Specifically, in Experimental Groups 2-1 and 2-2 and Comparative Experimental Groups 2-1 to 2-3, the body weights of the mice were measured every week for 20 weeks after the start of administration of the test drugs, and the result is shown in FIG. 5.

[4] = Body weights and tissue weights of mice sacrificed after 20 weeks (Example 2, FIG. 6); conditions: compared to Comparative Experimental Group 2-3 (PBS)
Protocol: (§2) Six-week-old wild-type C57BL/6 mice, to be subjected to body fat monitoring, were purchased, acclimated for 3 days and then raised. HCA (Sigma-Aldrich), Schizophyllum commune-derived β-glucan (SPG with the structure of β-(1.6)-branched (1,3)-glucan; Quegen Biotech Co., Ltd.) and a phosphate buffer solution (PBS) were orally administered as test drugs in combination or independently once every day. Specifically, 0.2 mL of HCA (concentration=10 mg/mL), and after 30 minutes, 0.2 mL of Schizophyllum commune-derived β-glucan (SPG with the structure of β-(1,6)-branched (1,3)-glucan; concentration=0.4 mg/mL) were orally administered to Experimental Group 2-1. In addition, 0.2 mL of HCA (concentration=10 mg/mL), and after 30 minutes, 0.2 mL of Schizophyllum commune-derived β-glucan (SPG with the structure of β-(1,6)-branched (1,3)-glucan; concentration=2 mg/mL) were orally administered to Experimental Group 2-2. Meanwhile, 0.2 mL of HCA (concentration=10 mg/mL) was orally administered to Comparative Experimental Group 2-1. In addition, 0.2 mL of Schizophyllum commune-derived β-glucan (SPG with the structure of 3-(1.6)-branched (1,3)-glucan:concentration=2 mg/mL) was orally administered to Comparative Experimental Group 2-2, and 0.2 mL of PBS was orally administered to Comparative Experimental Group 2-3.
In addition, in Experimental Groups 2-1 and 2-2 and Comparative Experimental Groups 2-1 to 2-3, the mice were sacrificed after 20 weeks of administering the test drugs, and then body weights and tissue weights thereof measured, and the result is shown in FIG. 6.

[5] = Summary of the animal tests: supplement for reducing body fat and β-glucan, alone or co-administered; conditions: administered alone
Protocol: as §1, §2

[6] = Serum analysis of mice sacrificed after 20 weeks (Example 2, FIG. 7); conditions: compared to Comparative Experimental Group 2-3 (PBS)
Protocol: as §2, with “2-3. In addition, in Experimental Groups 2-1 and 2-2 and Comparative Experimental Groups 2-1 to 2-3, the mice were sacrificed after 20 weeks of administering the test drugs, and then subjected to serum analysis, and the result is shown in FIG. 7.” for “2-3.”

[7] = Serum analysis of mice sacrificed after 28 weeks (Example 1, FIG. 4); conditions: compared to Comparative Experimental Group 1-3 (PBS)
Protocol: as §1
In addition, in Experimental Groups 1-1 and 1-2 and Comparative Experimental Groups 1-1 to 1-3, the mice were sacrificed after 28 weeks of administering the test drugs, and then subjected to serum analysis, and the result is shown in FIG. 4.

Compound | body weight as the period of administering the test drugs progressed [1] | body weight at sacrifice [2] | tissue weight of each organ [2] | body weight as the period of administering the test drugs progressed [3] | body weight at sacrifice [4] | tissue weight of each organ [4] | weight loss effect [5] | tissue weight of the liver [4] | free fatty acid content (serum) [6] | liver damage (serum analysis) [6] | total cholesterol content in blood [6] | triglyceride content (serum) [6] | side effects (hepatotoxicity, increase in blood cholesterol level) [5] | tissue weight of the liver [2] | free fatty acid content (serum) [7] | liver damage (serum analysis) [7] | total cholesterol content in blood [7] | triglyceride content (serum) [7]
β-(1,6)-branched (1,3)-glucan [Comparative Experimental Group 1-2] | no change in body weight | almost no change | almost no change | no change in body weight | almost no change | almost no change | does not exhibit a significant weight loss effect | – | – | – | – | – | – | – | – | – | – | –
O=C(O)CC(O)(C(=O)O)C(O)C(=O)O (stereo not drawn) [Comparative Experimental Group 2-1, hydroxycitric acid] | – | – | – | greatly decreased in body weight | greatly decreased | greatly decreased | a weight loss effect caused by reduced body fat is exhibited | rather increased in tissue weight of the liver | decreased by more than half | had liver damage | increased in total cholesterol content in blood | decreased by more than half | side effects caused by hepatotoxicity and an increase in blood cholesterol level are problematic | – | – | – | – | –
conjugated linoleic acid [Comparative Experimental Group 1-1] | greatly decreased in body weight | greatly decreased | greatly decreased | – | – | – | a weight loss effect caused by reduced body fat is exhibited | – | – | – | – | – | side effects caused by hepatotoxicity and an increase in blood cholesterol level are problematic | rather increased in tissue weight of the liver | decreased by more than half | had liver damage | increased in total cholesterol content in blood | decreased by more than half
